Test results from publication PMC5784132, “Investigation of 20S-hydroxyvitamin D3 analogs and their 1α-OH derivatives as potent vitamin D receptor agonists with anti-inflammatory activities” (Scientific Reports, 2018).

Target: T1, mouse CYP27B1 (Mus musculus, UniProt O35084)
T1 construct: made in house; host or cells: E. coli
T1 sequence (O35084 1-507): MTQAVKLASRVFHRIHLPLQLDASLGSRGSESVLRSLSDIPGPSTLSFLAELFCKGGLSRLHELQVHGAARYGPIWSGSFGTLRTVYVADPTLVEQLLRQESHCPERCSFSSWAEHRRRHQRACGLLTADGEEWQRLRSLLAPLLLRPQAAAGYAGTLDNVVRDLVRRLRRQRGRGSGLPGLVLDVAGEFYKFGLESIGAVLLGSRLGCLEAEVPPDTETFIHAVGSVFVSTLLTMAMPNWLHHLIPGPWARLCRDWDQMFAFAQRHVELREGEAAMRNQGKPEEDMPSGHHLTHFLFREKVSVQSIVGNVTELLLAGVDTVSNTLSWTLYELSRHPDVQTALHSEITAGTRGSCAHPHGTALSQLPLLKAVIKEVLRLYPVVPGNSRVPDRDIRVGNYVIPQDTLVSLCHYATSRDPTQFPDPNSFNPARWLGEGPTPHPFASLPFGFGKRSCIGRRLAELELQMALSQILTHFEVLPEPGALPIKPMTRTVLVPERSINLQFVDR
Test: Metabolism (1α-hydroxylation) of analogs by mouse CYP27B1
Assay type: in vitro ADME
Experimental: In order to make the 1α-OH derivatives of the 20S(OH)D3 analogs enzymatically, and to assess their likely capacity to be 1α-hydroxylated in vivo, the ability of mouse CYP27B1 to hydroxylate these metabolites was examined. 25(OH)D3, the major natural substrate for CYP27B1[2],[30], was included for comparison. The 20S(OH)D3 analogs were incorporated into phospholipid vesicles and incubated with CYP27B1, then the extent of their metabolism was determined by HPLC (Table 2). All analogs tested except 33 were metabolized by CYP27B1. In each case only a single metabolite was produced, assumed to be the 1α-OH derivative based on the known high specificity of the enzyme for the 1α-position[24],[30],[31]. […] Metabolism of 4 was almost twice that of 20S(OH)D3 and metabolism of 23 almost three fold. Thus, the modifications to C24 and/or C25 seen in 13, 4 and 23 enhanced their ability to be metabolized by CYP27B1. […] In contrast, the introduction of an amide linkage into the side chain, as in 33, prevented its hydroxylation by CYP27B1.
Rat CYP24A1, mouse CYP27B1 and adrenodoxin and human adrenodoxin reductase were expressed in E. coli and purified as described before[28],[30],[35]. To test metabolism of each analog, they were incorporated into phospholipid vesicles made from dioleoyl phosphatidylcholine and cardiolipin by sonication, as before[24],[28]. The substrates in vesicles (510 µM phospholipid) were incubated at 37 °C with either CYP24A1 (0.14 µM) or CYP27B1 (0.8 µM) in a reconstituted system containing adrenodoxin (15 µM) and adrenodoxin reductase (0.4 µM). Samples from incubations with CYP24A1 were extracted with dichloromethane and analysed by HPLC using a 25 cm Grace Alltima C18 column, as before[27],[28]. Products (except 33) were separated using an acetonitrile on water gradient (45% to 100% for 20 min then 100% acetonitrile for 40 min at a flow rate of 0.5 mL/min). For the more polar 33, the acetonitrile gradient was 30% to 100% acetonitrile for 30 min then 100% acetonitrile for 20 min, at 0.5 mL/min. Products from incubations with CYP27B1 were similarly extracted with dichloromethane and analyzed by reverse phase HPLC using a 15 cm Grace Smart C18 column and an acetonitrile in water gradient (10 min 45% to 100% acetonitrile then 20 min at 100% acetonitrile, at 0.5 mL/min).

Row | Structure (SMILES) | Product (% total secosteroids) (0.018 mol/mol phospholipid, 0.8 µM mouse CYP27B1, 20 min, 37 °C) | conversion to product by CYP27B1, fold higher than 20S(OH)D3 (20 min incubation)
1 | C=C1CC[C@H](O)C/C1=C/C=C1\CCC[C@@]2(C)[C@H]1CC[C@@H]2[C@@](C)(O)CCCC(C)C [20S(OH)D3, 20S-hydroxyvitamin D3] | 21.1 % total secosteroids | –
2 | C=C1CC[C@H](O)C/C1=C/C=C1\CCC[C@@]2(C)[C@H]1CC[C@@H]2[C@@](C)(O)CCOC(C)C [compound 13] | – | 4.3 fold
